Read-outs that look alike come from different tables or passages of the source.

We go through 25 molecules from PMC8933873 (European Journal of Medicinal Chemistry, 2022).

For data set [1], the system named is SARS-CoV-2 virus strain hCoV-19/Taiwan/4/2020. The format is cell-based.
For data set [2] the following is noted: GI permeability, 50 μM, 25 °C, 3 h.
In another data set the test system is TMEM16F. In kind it is cell-based. The conditions noted are these: 1 h treatment, Vero E6 cells, annexin XII.
The subject of data set [3] is SARS-CoV-2. As to conditions: read-out: Anti-SARS-CoV-2 IC50; literature value; cited from earlier work.
The nature of another data set: in vitro. As to conditions: PAMPA. Background: The PAMPA barrier holds no transporters, so it reflects passive diffusion.
In data set [4] the test system is SARS-CoV-2. The data set can be described thus: Quantification of SARS-CoV-2 viral load via antibody staining. In kind it is cell-based.
The next data set concerns COVID-19. As to conditions: non-hospitalized adult patients with mild-to-moderate COVID-19, phase 3 study; cited from earlier work.

On to “5-Chloro-N-(3-hydroxybenzyl)-2-hydroxybenzamide [Compound 13]”, for which the “antiviral efficacy in CPE screening” value in data set [1] is “inactive”. Moreover, the PAMPA in data set [2] is 15.9 10^−6 cm/s. The corresponding values for “5-Chloro-N-(4-hydroxybenzyl)-2-hydroxybenzamide [Compound 14]” are “inactive” and 33.1 10^−6 cm/s.

One may read the IC50 as the concentration needed to halve the response being measured. Regarding `O=C(Nc1ccc([N+](=O)[O-])cc1Cl)c1cc(Cl)ccc1O` [Compound 1, 5-Chloro-N-(2-chloro-4-nitrophenyl)-2-hydroxybenzamide], in the data set on TMEM16F (100 nM), the “phosphatidylserine externalization triggered by ionomycin” value is recorded as “significantly reduced the signal of phosphatidylserine on cell surface”. Further, the PAMPA in data set [2] is 8.5 10^−6 cm/s. Further, the half-inhibitory concentration (IC50) in the data set on SARS-CoV-2 [3] is 340 nM. As for `O=C(Nc1ccccc1)c1cc(Cl)ccc1O` [Compound 2, 5-Chlorosalicylanilide], in data set [1], the “antiviral efficacy in CPE screening” value is given as “antiviral efficacy that were superior to their cytotoxicity”. For the same molecule, in data set [2], the PAMPA is listed as 16.0 10^−6 cm/s. One may read the Papp as the rate of passage across a membrane or cell layer, normalised by area and donor concentration. Lower therefore signals poor permeation. With `O=C(Nc1ccc([N+](=O)[O-])cc1)c1cc(Cl)ccc1O` [Compound 3, 5-Chloro-N-(4-nitrophenyl)-2-hydroxybenzamide], the “antiviral efficacy in CPE screening” value in data set [1] was “antiviral efficacy that were superior to their cytotoxicity”. Further, the Papp in the data set “in vitro” was determined as 12.4 ×10⁻⁶ cm/s.

With `O=C(Nc1cccc([N+](=O)[O-])c1)c1cc(Cl)ccc1O` [Compound 4, 5-Chloro-N-(3-nitrophenyl)-2-hydroxybenzamide], the “antiviral efficacy in CPE screening” value in data set [1] was “antiviral efficacy that were superior to their cytotoxicity”. Also, the PAMPA in data set [2] is listed as 19.5 10^−6 cm/s. Consider `O=C(Nc1ccc([N+](=O)[O-])c(Cl)c1)c1cc(Cl)ccc1O` [Compound 5, 5-Chloro-N-(3-chloro-4-nitrophenyl)-2-hydroxybenzamide], for which, in the data set on SARS-CoV-2 [4], the “anti-SARS-CoV-2 activity relative to niclosamide” value is listed as 7 fold. In the case of `O=C(Nc1cccc(Cl)c1)c1cc(Cl)ccc1O` [Compound 6, 5-Chloro-N-(3-chlorophenyl)-2-hydroxybenzamide], in data set [1], the “antiviral efficacy in CPE screening” value was “antiviral efficacy that were superior to their cytotoxicity”. Also, the PAMPA in data set [2] is listed as 8.6 10^−6 cm/s. The corresponding values for `O=C(Nc1ccc(F)c(Cl)c1)c1cc(Cl)ccc1O` [Compound 7, 5-Chloro-N-(3-chloro-4-fluorophenyl)-2-hydroxybenzamide] are “diminished” and 11.5 10^−6 cm/s. Consider `O=C(Nc1ccc(F)cc1)c1cc(Cl)ccc1O` [Compound 8, 5-Chloro-N-(4-fluorophenyl)-2-hydroxybenzamide], for which the “antiviral efficacy in CPE screening” value in data set [1] is “inactive”. The same molecule showed a Papp in the data set “in vitro” of 18.2 ×10⁻⁶ cm/s. As for `O=C(Nc1cccc(F)c1)c1cc(Cl)ccc1O` [Compound 9, 5-Chloro-N-(3-fluorophenyl)-2-hydroxybenzamide], the “antiviral efficacy in CPE screening” value in data set [1] was “inactive”. The PAMPA in data set [2] is given as 3.7 10^−6 cm/s.

For the molecule `O=C(Nc1ccc(C(F)(F)F)cc1)c1cc(Cl)ccc1O` [Compound 10, 5-Chloro-N-(4-trifluoromethylphenyl)-2-hydroxybenzamide], the “antiviral efficacy in CPE screening” value in data set [1] is given as “antiviral efficacy that were superior to their cytotoxicity”. Also, the PAMPA in data set [2] is listed as 6.9 10^−6 cm/s. The corresponding values for `O=C(Nc1cccc(C(F)(F)F)c1)c1cc(Cl)ccc1O` [Compound 11, 5-Chloro-N-(3-trifluoromethylphenyl)-2-hydroxybenzamide] are “antiviral efficacy that were superior to their cytotoxicity” and 4.2 10^−6 cm/s.

Take `CC(C)(C)c1cccc(NC(=O)c2cc(Cl)ccc2O)c1` [Compound 12, 5-Chloro-N-(3-tert-butylphenyl)-2-hydroxybenzamide]: in data set [1], the “antiviral efficacy in CPE screening” value is “antiviral efficacy that were superior to their cytotoxicity”. Further, the PAMPA in data set [2] was 18.7 10^−6 cm/s. The corresponding values for `O=C(Nc1ccc(N2CCCCC2)cc1)c1cc(Cl)ccc1O` [Compound 15, 5-Chloro-N-(4-(piperidin-1-yl)phenyl)-2-hydroxybenzamide] are “inactive” and 43.3 10^−6 cm/s.

`Cc1ccc(CNC(=O)c2cc(Cl)ccc2O)cc1` [Compound 16, 5-Chloro-N-(4-methylbenzyl)-2-hydroxybenzamide]: in data set [1], the “antiviral efficacy in CPE screening” value is listed as “did not show viral inhibition”. Further, in data set [2], the PAMPA was 42.6 10^−6 cm/s.

Take `Cc1cccc(CNC(=O)c2cc(Cl)ccc2O)c1` [Compound 17, 5-Chloro-N-(3-methylbenzyl)-2-hydroxybenzamide]: the “antiviral efficacy in CPE screening” value in data set [1] is “did not show viral inhibition”. Further, in data set [2], the PAMPA is reported as 28.4 10^−6 cm/s. In the case of `O=C(Nc1ccc([N+](=O)[O-])cc1Cl)c1ccccc1O` [Compound 18, N-(2-chloro-4-nitrophenyl)-2-hydroxybenzamide], the “antiviral efficacy in CPE screening” value in data set [1] is “antiviral efficacy that were superior to their cytotoxicity”. Further, the PAMPA in data set [2] is listed as 15.3 10^−6 cm/s. `O=C(Nc1ccc([N+](=O)[O-])cc1Cl)c1ccccc1` [Compound 19, N-(2-chloro-4-nitrophenyl)benzamide]: the PAMPA in data set [2] is recorded as 42.2 10^−6 cm/s. In the case of `Cc1ccc(O)c(C(=O)Nc2ccc([N+](=O)[O-])cc2Cl)c1` [Compound 20, 5-Methyl-N-(2-chloro-4-nitrophenyl)-2-hydroxybenzamide], in data set [1], the “antiviral efficacy in CPE screening” value was “diminished”. In data set [2], the PAMPA was 20.9 10^−6 cm/s. In the same order, the values of `Cc1ccc(C(=O)Nc2ccc([N+](=O)[O-])cc2Cl)c(O)c1` [Compound 21, 4-Methyl-N-(2-chloro-4-nitrophenyl)-2-hydroxybenzamide] are “diminished” and 6.1 10^−6 cm/s. Regarding `O=C(Nc1ccc([N+](=O)[O-])cc1Cl)c1cc(F)ccc1O` [Compound 22, 5-Fluoro-N-(2-chloro-4-nitrophenyl)-2-hydroxybenzamide], the “antiviral efficacy in CPE screening” value in data set [1] is “diminished”. The PAMPA in data set [2] was 30.7 10^−6 cm/s. The corresponding values for `O=C(Nc1ccc(O[C@@H]2O[C@H](CO)[C@@H](O)[C@H](O)[C@H]2O)cc1)c1cc(Cl)ccc1O` [Compound 27, 5-Chloro-N-(4-phenyl-β-D-glucopyranoside)-2-hydroxybenzamide] are “inactive” and 1.9 10^−6 cm/s. Take `CC(C)C(=O)OC[C@H]1O[C@@H](n2ccc(NO)nc2=O)[C@H](O)[C@@H]1O` [Molnupiravir]: the “reduction of the risk of hospitalization or death” value with COVID-19 is 30%. As for `Cc1c(O)cccc1C(=O)N[C@@H](CSc1ccccc1)[C@H](O)CN1C[C@H]2CCCC[C@H]2C[C@H]1C(=O)NC(C)(C)C` [Nelfinavir], in the data set with TMEM16F (500 nM), the “phosphatidylserine externalization triggered by ionomycin” value is given as “no inhibition”.
